Assay results as given in patent US20250275540A1, “USE OF PROTOPORPHYRINOGEN OXIDASE” (BEIJING DABEINONG BIOTECHNOLOGY CO., LTD., priority 2022, published 2025).

System: transgenic soybean plants
Experiment: Detection of the herbicide tolerance of the transgenic soybean plants
Assay type: in vivo
Conditions: for The grade of pesticide damage/plant: 0 / The grade of pesticide damage/plant: 1 / The grade of pesticide damage/plant: 2 / The grade of pesticide damage/plant: 3: 7 DAT
[1] = genotype Control vector, 360 g ai/ha
[2] = genotype Control vector, 720 g ai/ha
[3] = genotype PPO-AP-01, 360 g ai/ha
[4] = genotype PPO-AP-01, 720 g ai/ha
[5] = genotype PPO-EC-01, 360 g ai/ha
[6] = genotype PPO-EC-01, 720 g ai/ha

In the case of `CCOc1cc(Oc2ccc(C(F)(F)F)cc2Cl)ccc1[N+](=O)[O-]` [oxyfluorfen, 2-chloro-1-(3-ethoxy-4-nitrophenoxy)-4-trifluoromethylbenzene], the “The grade of pesticide damage/plant: 0” value (genotype CK, 360 g ai/ha) was 0 plant, the “The grade of pesticide damage/plant: 1” value (genotype CK, 360 g ai/ha) was 0 plant and the “The grade of pesticide damage/plant: 2” value (genotype CK, 360 g ai/ha) was 0 plant. The “The grade of pesticide damage/plant: 3” value (genotype CK, 360 g ai/ha) was 16 plant, the “The grade of pesticide damage/plant: 0” value (genotype CK, 720 g ai/ha) was 0 plant and the “The grade of pesticide damage/plant: 1” value (genotype CK, 720 g ai/ha) was 0 plant. For the same molecule, the “The grade of pesticide damage/plant: 2” value (genotype CK, 720 g ai/ha) was 0 plant, the “The grade of pesticide damage/plant: 3” value (genotype CK, 720 g ai/ha) was 16 plant and the “The grade of pesticide damage/plant: 0” value [1] was 0 plant. The “The grade of pesticide damage/plant: 1” value [1] was 0 plant, the “The grade of pesticide damage/plant: 2” value [1] was 0 plant and the “The grade of pesticide damage/plant: 3” value [1] was 16 plant. The “The grade of pesticide damage/plant: 0” value [2] was 0 plant, the “The grade of pesticide damage/plant: 1” value [2] was 0 plant and the “The grade of pesticide damage/plant: 2” value [2] was 0 plant. For the same molecule, the “The grade of pesticide damage/plant: 3” value [2] was 16 plant, the “The grade of pesticide damage/plant: 0” value [3] was 0 plant and the “The grade of pesticide damage/plant: 1” value [3] was 0 plant. The “The grade of pesticide damage/plant: 2” value [3] was 8 plant, the “The grade of pesticide damage/plant: 3” value [3] was 8 plant and the “The grade of pesticide damage/plant: 0” value [4] was 0 plant. The “The grade of pesticide damage/plant: 1” value [4] was 0 plant, the “The grade of pesticide damage/plant: 2” value [4] was 0 plant and the “The grade of pesticide damage/plant: 3” value [4] was 16 plant. The “tolerance to the herbicide (in words)” value (genotype PPO-AP-01, four-fold field concentration) was “no tolerance”, the “share of the plants that exhibited no tolerance” value (genotype PPO-AP-01, two-fold field concentration) was 50% and the “The grade of pesticide damage/plant: 0” value [5] was 16 plant. The “The grade of pesticide damage/plant: 1” value [5] was 0 plant, the “The grade of pesticide damage/plant: 2” value [5] was 0 plant and the “The grade of pesticide damage/plant: 3” value [5] was 0 plant. For the same molecule, the “The grade of pesticide damage/plant: 0” value [6] was 13 plant, the “The grade of pesticide damage/plant: 1” value [6] was 3 plant and the “The grade of pesticide damage/plant: 2” value [6] was 0 plant. For the same molecule, the “The grade of pesticide damage/plant: 3” value [6] was 0 plant, the “The grade of pesticide damage/plant: 0” value (genotype PPOA-01, 360 g ai/ha) was 16 plant and the “The grade of pesticide damage/plant: 1” value (genotype PPOA-01, 360 g ai/ha) was 0 plant. For the same molecule, the “The grade of pesticide damage/plant: 2” value (genotype PPOA-01, 360 g ai/ha) was 0 plant, the “The grade of pesticide damage/plant: 3” value (genotype PPOA-01, 360 g ai/ha) was 0 plant and the “The grade of pesticide damage/plant: 0” value (genotype PPOA-01, 720 g ai/ha) was 15 plant. The “The grade of pesticide damage/plant: 1” value (genotype PPOA-01, 720 g ai/ha) was 1 plant, the “The grade of pesticide damage/plant: 2” value (genotype PPOA-01, 720 g ai/ha) was 0 plant and the “The grade of pesticide damage/plant: 3” value (genotype PPOA-01, 720 g ai/ha) was 0 plant. For the same molecule, the “The grade of pesticide damage/plant: 0” value (genotype PPOB-01, 360 g ai/ha) was 16 plant, the “The grade of pesticide damage/plant: 1” value (genotype PPOB-01, 360 g ai/ha) was 0 plant and the “The grade of pesticide damage/plant: 2” value (genotype PPOB-01, 360 g ai/ha) was 0 plant. The “The grade of pesticide damage/plant: 3” value (genotype PPOB-01, 360 g ai/ha) was 0 plant, the “The grade of pesticide damage/plant: 0” value (genotype PPOB-01, 720 g ai/ha) was 16 plant and the “The grade of pesticide damage/plant: 1” value (genotype PPOB-01, 720 g ai/ha) was 0 plant. For the same molecule, the “The grade of pesticide damage/plant: 2” value (genotype PPOB-01, 720 g ai/ha) was 0 plant, the “The grade of pesticide damage/plant: 3” value (genotype PPOB-01, 720 g ai/ha) was 0 plant and the “The grade of pesticide damage/plant: 0” value (genotype PPOC-01, 360 g ai/ha) was 16 plant. The “The grade of pesticide damage/plant: 1” value (genotype PPOC-01, 360 g ai/ha) was 0 plant, the “The grade of pesticide damage/plant: 2” value (genotype PPOC-01, 360 g ai/ha) was 0 plant and the “The grade of pesticide damage/plant: 3” value (genotype PPOC-01, 360 g ai/ha) was 0 plant. The “The grade of pesticide damage/plant: 0” value (genotype PPOC-01, 720 g ai/ha) was 16 plant, the “The grade of pesticide damage/plant: 1” value (genotype PPOC-01, 720 g ai/ha) was 0 plant and the “The grade of pesticide damage/plant: 2” value (genotype PPOC-01, 720 g ai/ha) was 0 plant. The “The grade of pesticide damage/plant: 3” value (genotype PPOC-01, 720 g ai/ha) was 0 plant, the “The grade of pesticide damage/plant: 0” value (genotype PPOD-01, 360 g ai/ha) was 16 plant and the “The grade of pesticide damage/plant: 1” value (genotype PPOD-01, 360 g ai/ha) was 0 plant. The “The grade of pesticide damage/plant: 2” value (genotype PPOD-01, 360 g ai/ha) was 0 plant, the “The grade of pesticide damage/plant: 3” value (genotype PPOD-01, 360 g ai/ha) was 0 plant and the “The grade of pesticide damage/plant: 0” value (genotype PPOD-01, 720 g ai/ha) was 16 plant. For the same molecule, the “The grade of pesticide damage/plant: 1” value (genotype PPOD-01, 720 g ai/ha) was 0 plant, the “The grade of pesticide damage/plant: 2” value (genotype PPOD-01, 720 g ai/ha) was 0 plant and the “The grade of pesticide damage/plant: 3” value (genotype PPOD-01, 720 g ai/ha) was 0 plant. For the same molecule, the “The grade of pesticide damage/plant: 0” value (genotype PPOE-01, 360 g ai/ha) was 16 plant, the “The grade of pesticide damage/plant: 1” value (genotype PPOE-01, 360 g ai/ha) was 0 plant and the “The grade of pesticide damage/plant: 2” value (genotype PPOE-01, 360 g ai/ha) was 0 plant. For the same molecule, the “The grade of pesticide damage/plant: 3” value (genotype PPOE-01, 360 g ai/ha) was 0 plant, the “The grade of pesticide damage/plant: 0” value (genotype PPOE-01, 720 g ai/ha) was 14 plant and the “The grade of pesticide damage/plant: 1” value (genotype PPOE-01, 720 g ai/ha) was 2 plant. The “The grade of pesticide damage/plant: 2” value (genotype PPOE-01, 720 g ai/ha) was 0 plant, the “The grade of pesticide damage/plant: 3” value (genotype PPOE-01, 720 g ai/ha) was 0 plant and the “The grade of pesticide damage/plant: 0” value (genotype PPOF-01, 360 g ai/ha) was 16 plant. For the same molecule, the “The grade of pesticide damage/plant: 1” value (genotype PPOF-01, 360 g ai/ha) was 0 plant, the “The grade of pesticide damage/plant: 2” value (genotype PPOF-01, 360 g ai/ha) was 0 plant and the “The grade of pesticide damage/plant: 3” value (genotype PPOF-01, 360 g ai/ha) was 0 plant. The “The grade of pesticide damage/plant: 0” value (genotype PPOF-01, 720 g ai/ha) was 16 plant, the “The grade of pesticide damage/plant: 1” value (genotype PPOF-01, 720 g ai/ha) was 0 plant and the “The grade of pesticide damage/plant: 2” value (genotype PPOF-01, 720 g ai/ha) was 0 plant. For the same molecule, the “The grade of pesticide damage/plant: 3” value (genotype PPOF-01, 720 g ai/ha) was 0 plant, the “tolerance to the herbicide (in words)” value (genotypes PPOA-01 to PPOF-01 and PPO-EC-01, four-fold field concentration) was “high-resistant tolerance” and the “tolerance to the herbicide (in words)” value (genotypes PPOA-01 to PPOF-01 and PPO-EC-01, two-fold field concentration) was “high-resistant tolerance”.
